# In patent US20070129313A1, “Sulfonylamino-peptidomimetics active on the somatostatin receptor subtypes 4 (sstr4) and 1 (sstr1)” (SIEGFRIED WURSTER, priority 2003, published 2007):
# How the values were obtained:
# [1] = test system: NPFF receptor; settings: rat tissue; cited from earlier work
# [2] = target: T1, human somatostatin receptor subtype SSTR1 (Homo sapiens, UniProt P30872); test: Competition binding with 125I-LTT-sst-28, CHO cell membranes, SSTR1; settings: membranes of CHO cells stably transfected with human SSTR1, Ki from IC50 by Cheng-Prusoff
# T1 construct: expressed in transfected cells; host or cells: Chinese hamster ovary (CHO) cells, membranes
# T1 sequence (P30872 whole entry): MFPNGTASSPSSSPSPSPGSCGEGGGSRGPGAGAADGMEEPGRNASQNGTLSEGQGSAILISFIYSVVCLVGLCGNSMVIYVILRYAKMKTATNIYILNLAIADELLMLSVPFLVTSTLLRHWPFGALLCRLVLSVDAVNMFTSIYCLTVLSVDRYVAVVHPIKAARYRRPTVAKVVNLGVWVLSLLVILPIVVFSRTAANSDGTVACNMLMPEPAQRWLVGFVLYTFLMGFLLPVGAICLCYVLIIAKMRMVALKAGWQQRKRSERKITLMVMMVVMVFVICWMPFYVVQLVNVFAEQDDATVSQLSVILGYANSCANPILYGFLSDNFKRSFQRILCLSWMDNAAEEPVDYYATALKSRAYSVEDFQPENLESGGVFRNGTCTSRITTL
# Description: (§1) The affinity of the compounds of the invention for the five human somatostatin receptor subtypes (SSTR1, SSTR2, SSTR3, SSTR4, and SSTR5) was determined in competition binding assays with (^125I-Tyr)-[Leu^8, DTrp^22]-somatostatin-28 (^125I-LTT-sst-28). The biological material for these experiments consisted of membranes from Chinese hamster ovary (CHO) cells stably transfected with one of the five human somatostatin receptor subtypes. Membranes (3-20 μg of total protein per sample) and trace amount of ^125I-LTT-sst-28 were incubated in 10 mM Hepes, 1 mM EDTA, 5 mM MgCl2, 5 mg/ml of BSA and 30 μg/ml bacitracin, pH 7.6 with six concentrations of the compounds. Each concentration was run in duplicate. Nonspecific binding was defined by 1 μM somatostatin-14 (sst-14) and corresponded to 5-25% of total binding. After 60 min at room temperature, incubations were terminated by rapid vacuum filtration through GF/B glass fiber filter mats (presoaked at 4° C. in 200 ml of 10 mM Hepes, 1 mM EDTA, 5 mM MgCl2, pH 7.6) and three 5 ml washes with ice-cold wash buffer (20 mM TRIS, 1 mM EDTA, 5 mM MgCl2, pH 7.4). The filters were then dried, impregnated with scintillate and their radioactivity was measured by scintillation counting. The analysis of the experiments was carried out by nonlinear least square curve fitting. Affinity constants (Ki) were calculated from the IC50 values according to the Cheng-Prusoff's equation (Cheng and Prusoff, 1973). Experiments were repeated a minimum of three times.
# [3] = target: T2, human somatostatin receptor subtype SSTR2 (Homo sapiens, UniProt P30874); test: Competition binding with 125I-LTT-sst-28, CHO cell membranes, SSTR2; settings: membranes of CHO cells stably transfected with human SSTR2, Ki from IC50 by Cheng-Prusoff
# T2 construct: expressed in transfected cells; host or cells: Chinese hamster ovary (CHO) cells, membranes
# T2 sequence (P30874 whole entry): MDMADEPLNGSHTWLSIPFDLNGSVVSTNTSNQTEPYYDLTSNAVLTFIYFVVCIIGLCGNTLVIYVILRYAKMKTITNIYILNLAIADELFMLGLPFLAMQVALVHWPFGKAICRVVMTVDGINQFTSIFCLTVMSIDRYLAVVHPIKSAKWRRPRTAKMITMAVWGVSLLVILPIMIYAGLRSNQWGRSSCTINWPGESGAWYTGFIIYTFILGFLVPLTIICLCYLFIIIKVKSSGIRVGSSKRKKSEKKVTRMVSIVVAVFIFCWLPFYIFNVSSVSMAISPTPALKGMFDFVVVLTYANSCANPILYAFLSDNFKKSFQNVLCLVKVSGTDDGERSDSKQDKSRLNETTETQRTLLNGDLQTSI
# Description: as §1
# [4] = target: T3, human somatostatin receptor subtype SSTR5 (Homo sapiens, UniProt P35346); test: Competition binding with 125I-LTT-sst-28, CHO cell membranes, SSTR5; settings: membranes of CHO cells stably transfected with human SSTR5, Ki from IC50 by Cheng-Prusoff
# T3 construct: expressed in transfected cells; host or cells: Chinese hamster ovary (CHO) cells, membranes
# T3 sequence (P35346 whole entry): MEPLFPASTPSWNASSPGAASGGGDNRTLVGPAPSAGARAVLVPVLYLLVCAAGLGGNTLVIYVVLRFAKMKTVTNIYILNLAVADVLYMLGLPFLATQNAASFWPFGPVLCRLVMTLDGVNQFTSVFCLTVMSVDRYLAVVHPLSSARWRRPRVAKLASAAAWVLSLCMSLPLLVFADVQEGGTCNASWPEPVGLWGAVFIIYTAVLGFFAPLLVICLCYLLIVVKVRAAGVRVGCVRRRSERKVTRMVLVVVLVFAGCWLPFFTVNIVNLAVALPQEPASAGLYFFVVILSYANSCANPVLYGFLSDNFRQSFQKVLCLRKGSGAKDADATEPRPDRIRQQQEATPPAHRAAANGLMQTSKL
# Description: as §1
# [5] = target: T4, human somatostatin receptor subtype SSTR4 (Homo sapiens, UniProt P31391); test: Competition binding with 125I-LTT-sst-28, CHO cell membranes, SSTR4; settings: membranes of CHO cells stably transfected with human SSTR4, Ki from IC50 by Cheng-Prusoff
# T4 construct: expressed in transfected cells; host or cells: Chinese hamster ovary (CHO) cells, membranes
# T4 sequence (P31391 whole entry): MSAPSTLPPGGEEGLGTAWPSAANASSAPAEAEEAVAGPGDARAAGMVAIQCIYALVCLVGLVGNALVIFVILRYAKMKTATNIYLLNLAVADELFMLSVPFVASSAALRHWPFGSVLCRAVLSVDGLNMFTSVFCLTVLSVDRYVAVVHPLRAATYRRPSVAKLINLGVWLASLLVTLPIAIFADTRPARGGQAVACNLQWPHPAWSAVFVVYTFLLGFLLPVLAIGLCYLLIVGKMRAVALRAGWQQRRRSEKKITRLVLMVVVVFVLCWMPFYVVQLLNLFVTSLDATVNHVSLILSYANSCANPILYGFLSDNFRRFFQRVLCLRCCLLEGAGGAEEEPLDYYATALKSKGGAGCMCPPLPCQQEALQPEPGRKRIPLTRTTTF
# Description: as §1
# [6] = target: T5, human somatostatin receptor subtype SSTR3 (Homo sapiens, UniProt P32745); test: Competition binding with 125I-LTT-sst-28, CHO cell membranes, SSTR3; settings: membranes of CHO cells stably transfected with human SSTR3, Ki from IC50 by Cheng-Prusoff
# T5 construct: expressed in transfected cells; host or cells: Chinese hamster ovary (CHO) cells, membranes
# T5 sequence (P32745 whole entry): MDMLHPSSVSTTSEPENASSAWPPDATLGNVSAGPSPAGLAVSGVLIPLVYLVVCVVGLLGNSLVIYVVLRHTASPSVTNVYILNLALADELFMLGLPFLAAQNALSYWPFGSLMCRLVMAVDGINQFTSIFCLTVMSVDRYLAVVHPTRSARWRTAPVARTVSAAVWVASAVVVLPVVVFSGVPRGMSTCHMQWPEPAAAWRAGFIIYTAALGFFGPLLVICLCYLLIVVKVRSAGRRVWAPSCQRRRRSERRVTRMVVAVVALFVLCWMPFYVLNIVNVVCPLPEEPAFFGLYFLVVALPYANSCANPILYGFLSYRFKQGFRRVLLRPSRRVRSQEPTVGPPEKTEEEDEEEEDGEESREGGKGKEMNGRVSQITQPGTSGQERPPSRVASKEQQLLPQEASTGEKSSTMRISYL
# Description: as §1
Ki [2],Ki [3],Ki [4],Ki [5],Ki [6],Structure (SMILES),affinity for NPFF receptor [1]
> 1000 nM,> 10000 nM,> 10000 nM,5.3 ± 2.1 nM,> 5000 nM,"Cc1ccc(S(=O)(=O)N[C@@H](CCN)C(=O)N[C@H](C(N)=O)C(c2ccccc2)c2ccccc2)c2ccccc12 [compound 7, 4-amino-N-((S)-1-carbamoyl-2,2-diphenylethyl)-(S)-2-(N′-(4-methyl-1-naphthalenesulfonyl)amino)butanamide]",–
73 ± 19 nM,> 10000 nM,> 10000 nM,3.6 ± 0.7 nM,> 10000 nM,"Cc1ccc(S(=O)(=O)N[C@@H](CCCNC(=N)N)C(=O)N[C@@H](Cc2ccccc2)C(N)=O)c2ccccc12 [compound 1, N-((S)-1-carbamoyl-2-phenylethyl)-5-guanidino-(S)-2-(N′-(4-methyl-1-naphthalenesulfonyl)amino)pentanamide]",–

# Continued, compound first:
Structure (SMILES),Ki [2],Ki [3],Ki [4],Ki [5],Ki [6],affinity for NPFF receptor [1]
CN(C)c1cccc2c(S(=O)(=O)N[C@@H](CCCN=C(N)N)C(=O)N[C@@H](Cc3ccccc3)C(N)=O)cccc12 [Dansyl-RFamide],–,–,–,–,–,73 nM
"Cc1ccc(S(=O)(=O)N[C@@H](CCCNC(=N)N)C(=O)N[C@H](C(N)=O)C(c2ccccc2)c2ccccc2)c2ccccc12 [compound 2, N-((S)-1-carbamoyl-2,2-diphenylethyl)-5-guanidino-(S)-2-(N′-(4-methyl-1-naphthalenesulfonyl)amino)pentanamide]",34 ± 14 nM,> 10000 nM,> 5000 nM,1.5 ± 0.7 nM,> 5000 nM,–
"CCc1ccc(S(=O)(=O)N[C@@H](CCN)C(=O)N[C@@H](Cc2ccccc2)C(N)=O)c2ccccc12 [compound 6, 4-amino-N-((S)-1-carbamoyl-2-phenylethyl)-(S)-2-(N′-(4-ethyl-1-naphthalenesulfonyl)amino)butanamide]",990 ± 80 nM,> 10000 nM,–,2.3 ± 0.4 nM,–,–
"Cc1ccc(S(=O)(=O)N[C@@H](CCN)C(=O)N[C@@H](Cc2ccccc2)C(N)=O)c2ccccc12 [compound 5, 4-amino-N-((S)-1-carbamoyl-2-phenylethyl)-(S)-2-(N′-(4-methyl-1-naphthalenesulfonyl)amino)butanamide]",500 ± 150 nM,> 1000 nM,540 ± 80 nM,–,–,–
"Cc1ccc(S(=O)(=O)N[C@@H](CCCN)C(=O)N[C@@H](Cc2ccccc2)C(N)=O)c2ccccc12 [compound 3, 5-amino-N-((S)-1-carbamoyl-2-phenylethyl)-(S)-2-(N′-(4-methyl-1-naphthalenesulfonyl)amino)pentanamide]",260 ± 20 nM,> 1000 nM,> 1000 nM,6.5 ± 1.7 nM,> 1000 nM,–
